Read-outs that look alike come from different tables or passages of the source.
Columns and labels:
[1] = system: triglyuride (TG) level of plasma; assay: Plasma triglyceride (TG) in Triton-injected mice (Experiment 2); format: in vivo, mice of ddY strain; conditions: Table 2, 150 mg/kg immediately and 8 hours after Triton WR-1399 500 mg/kg i.v., blood drawn 24 h after Triton; for inhibition in vivo: Mus musculus, iv, read-out: Percent Reduction TG (x ± S.E.)
Method: (§1) The mice of ddY strain weighing between 25 and 30 g were fasted overnight and then Triton WR-1399(500 mg/kg) (Ruger Chemicals Co.) was intravenously injected into the mice. Immediately and 8 hours after the injection, each mouse was administered 150 mg/kg of a test compound of this invention as suspended in 1% aqueous methylcellulose.
(§2) 24 Hours after the injection of Triton, the blood was drawn from the heart. The cholesterol (TC) and triglyuride (TG) levels of plasma were determined with RaBASuper (Chugai Seiyaku K.K., Japan).
(§3) As a positive control, chlofibrate were used.

[2] = system: lipid peroxide level (TBA) of blood; assay: Lipid peroxide (TBA) level of blood in alloxan-treated mice (Experiment 1); format: in vivo, male mice of ddY strain; conditions: Table 1, 300 mg/kg orally, 22 h after alloxan 75 mg/kg i.v., blood drawn 48 h after alloxan, vs untreated mice; for inhibition in vivo at 300 mg/kg: Mus musculus, po, read-out: Percent Reduction TBA (x ± S.E.)
Method: (§4) Male mice of ddY strain weighing between 25 and 30 g were divided into groups of 10 members each and administered intravenously 75 mg/kg of alloxan. Twenty-two hours later, each mouse was administered orally 300 mg/kg of a test compound of this invention as suspended in 1% gum arabic. […] The lipid peroxide level (TBA) of blood was determined with Lipoperoxide-Test Wako (Wako Pure Chemical Industries, Ltd., Japan). The level of blood sugar (BG) was determined with New Blood Sugar Test (Berlinger Mannheim AG., West Germany). […] As a positive control, tocopherol was used.

[3] = system: platelets (platelet rich plasma); assay: Inhibition of platelet aggregation in platelet rich plasma (Experiment 3); format: cell-based, SD strain rats; conditions: for inhibition at 100 µM: Rattus norvegicus, Platelet
Method: Platelet rich plasma samples were prepared from the blood of SD strain rats, and to 0.5 ml of the samples, test compounds in the form of a solution in dimethyl sulfoxide (DMSO) were added in such an amount that the concentration of the compounds in the mixture was 1×10^-4 M. The assay media containing aspirin were used as a control. After incubation for one minute, arachidonic acid, collagen and adenosine diphosphate (ADP) were added to the mixture in concentrations of 1×10^-4 M, 1.5×10^-3 M and 1×10^-6 M, respectively, to aggregate the platelets. The aggregation level was determined with an aggregometer. CORNING-EEL MODEL 16P (Manufactured by Evans Electro Selenium Ltd.) and the percent inhibition of platelets was calculated from the following equation: [formula]

[4] = system: level of blood sugar (BG); assay: Blood sugar (BG) level in alloxan-treated mice (Experiment 1); format: in vivo, male mice of ddY strain; conditions: Table 1, 300 mg/kg orally, 22 h after alloxan 75 mg/kg i.v., blood drawn 48 h after alloxan, vs untreated mice
Method: as §4

[5] = system: cholesterol (TC) level of plasma; assay: Plasma cholesterol (TC) in Triton-injected mice (Experiment 2); format: in vivo, mice of ddY strain; conditions: Table 2, 150 mg/kg immediately and 8 hours after Triton WR-1399 500 mg/kg i.v., blood drawn 24 h after Triton; for inhibition in vivo: Mus musculus, iv, read-out: Percent Reduction TC (x ± S.E.)
Method: as §1, §2, §3

[6] = Table 3 (own numbering), compound 1×10^-4 M, aggregation by ADP 1×10^-6 M, read-out: Percent Inhibition of Aggregation, ADP
[7] = Table 3 (own numbering), compound 1×10^-4 M, aggregation by arachidonic acid 1×10^-4 M, read-out: Percent Inhibition of Aggregation, Arachidonic acid
[8] = Table 3 (own numbering), compound 1×10^-4 M, aggregation by collagen 1.5×10^-3 M, read-out: Percent Inhibition of Aggregation, Collagen
[9] = Table 3 (own numbering), compound 1×10^-4 M, aggregation by ADP 1×10^-6 M
[10] = Table 3 (own numbering), compound 1×10^-4 M, aggregation by arachidonic acid 1×10^-4 M
[11] = Table 3 (own numbering), compound 1×10^-4 M, aggregation by collagen 1.5×10^-3 M

Molecule	inhibition at 100 µM [3, 6] [%]	inhibition at 100 µM [3, 7] [%]	inhibition at 100 µM [3, 8] [%]	inhibition in vivo [1] [%]	inhibition in vivo at 300 mg/kg [2] [%]	inhibition in vivo [5] [%]	further results
11-methyl-3-methoxydibenz[b,f][1,4]oxazepine-8-carboxylic acid [Compound 7 (Table 1)]	–	–	–	–	–	–	Percent Reduction TG (x ± S.E.) [1]: 17.8%; Percent Reduction TBA (x ± S.E.) [2]: 61.1%
CCOC(=O)c1ccc2c(c1)N=C(C)c1ccc(C)cc1O2 [Compound 3 (Table 3)]	50	55	43	–	–	–	–
CCOC(=O)c1ccc2c(c1)N=Cc1ccc(C)cc1O2 [Compound 3]	–	–	–	18.7	23	17.8	Percent Reduction BG (x ± S.E.) [4]: 16.5%
CCOC(=O)c1ccc2c(c1)N=C(CC)c1ccc(C)cc1O2 [Compound 4 (Table 1)]	50	60	47	–	–	–	–
CCOC(=O)c1ccc2c(c1)N=C(C)c1cccc(C)c1O2 [Compound 4 (Table 3)]	51	60	48	–	–	–	–
CCOC(=O)c1ccc2c(c1)N=C(C)c1cccc(OC)c1O2 [Compound 5 (Table 3)]	35	45	30	–	–	–	–
CCOC(=O)c1ccc2c(c1)N=C(CC)c1ccc(OC)cc1O2 [Compound 6]	–	–	–	19.6	54	19.5	–
COc1ccc2c(c1)Oc1ccc(C(=O)O)cc1N=C2C [Compound 7]	–	–	–	18.8	64.8	17.3	Percent Reduction BG (x ± S.E.) [4]: 15.7%
CC1=Nc2cc(C(=O)O)ccc2Oc2cc(C)ccc21 [Compound 8]	–	–	–	19.3	52	18.6	Percent Reduction BG (x ± S.E.) [4]: 16.3%
CCC1=Nc2cc(C(=O)O)ccc2Oc2cc(OC)ccc21 [Compound 9]	–	–	–	18.5	67.7	17.9	Percent Reduction BG (x ± S.E.) [4]: 18.4%
COC(=O)c1ccc2c(c1)N=Cc1cccc(OC)c1O2 [Compound 10]	36	38	34	24.5	50.3	20.7	–
CCCOC(=O)c1ccc2c(c1)N=Cc1cccc(OC)c1O2 [Compound 11]	43	42	40	21.3	38.6	19.2	–
CCCCOC(=O)c1ccc2c(c1)N=Cc1cccc(OC)c1O2 [Compound 12]	35	43	37	19.3	19.7	17.4	–
O=C(O)c1ccc2c(c1)N=Cc1cc(Cl)ccc1O2 [Compound 13]	–	–	–	15.2	18.3	14.5	Percent Reduction BG (x ± S.E.) [4]: 10.4%
CCOc1cccc2c1Oc1ccc(C(=O)O)cc1N=C2 [Compound 14]	–	–	–	21.3	63.4	19.5	Percent Reduction BG (x ± S.E.) [4]: 18.7%
Cc1ccc2c(c1)C=Nc1cc(C(=O)O)ccc1O2 [Compound 15]	–	–	–	19.4	23.8	17.7	Percent Reduction BG (x ± S.E.) [4]: 16.5%
CCOC(=O)c1ccc2c(c1)N=C(CC)c1cc(OC)cc(OC)c1O2 [Compound 16 (Table 1)]	44	52	47	–	–	–	–
CCOC(=O)c1ccc2c(c1)N=C(CC)c1cc(OC)cc(OC)c1O2 [Compound 16]	–	–	–	17.8	28.5	16.4	–
CCOC(=O)c1ccc2c(c1)N=C(C=Cc1ccccc1)c1cc(OC)ccc1O2 [Compound 17 (Table 1)]	46	48	45	–	–	–	–
CCOC(=O)c1ccc2c(c1)N=C(C=Cc1ccccc1)c1cc(OC)ccc1O2 [Compound 17]	–	–	–	19.7 ± 4.5	34.4 ± 2.9	17.4 ± 3.5	–
CCOC(=O)c1ccc2c(c1)N=C(c1ccccc1)c1ccc(OC)cc1O2 [Compound 18 (Table 1)]	40	50	43	–	–	–	–
CCOC(=O)c1ccc2c(c1)N=C(c1ccccc1)c1ccc(OC)cc1O2 [Compound 18]	–	–	–	21.3 ± 3.2	41.7 ± 3.2	18.4 ± 2.9	–
CCOC(=O)c1ccc2c(c1)N=C(c1cccc(C)c1)c1ccc(OC)cc1O2 [Compound 19]	39	45	41	19.7	34.9	20.1	–
CCCC1=Nc2cc(C(=O)OCC)ccc2Oc2cc(C)ccc21 [Compound 20]	47	60	50	17.4	39.6	16.5	–
CC(=O)Oc1ccccc1C(=O)O [aspirin, reference compound]	–	–	–	–	–	–	inhibition at 100 µM ([3]; read-out: Percent Inhibition of Aggregation, ADP): 17%; inhibition at 100 µM ([3]; read-out: Percent Inhibition of Aggregation, Arachidonic acid): 100%; inhibition at 100 µM ([3]; read-out: Percent Inhibition of Aggregation, Collagen): 8%
CCOC(=O)C(C)(C)Oc1ccc(Cl)cc1 [chlofibrate, reference compound]	–	–	–	9.5	–	13.8	–
Cc1c(C)c2c(c(C)c1O)CCC(C)(CCCC(C)CCCC(C)CCCC(C)C)O2 (stereo not drawn) [α-tocopherol, reference compound]	–	–	–	–	51.7	–	–
ethyl 4-methoxydibenz[b,f][1,4]oxazepine-8-carboxylate [Compound 6 (Table 3)]	–	–	–	–	–	–	Percent Reduction TG (x ± S.E.) ([1]; listed as 1): 20.8%; Percent Reduction TG (x ± S.E.) ([1]; listed as 2): 23.5%; Percent Reduction TBA (x ± S.E.) ([2]; listed as 1): 12.3%; Percent Reduction TBA (x ± S.E.) ([2]; listed as 2): 25.5%; Percent Reduction BG (x ± S.E.) ([4]; listed as 1): 15.5%; Percent Reduction BG (x ± S.E.) ([4]; listed as 2): 22.4%; Percent Inhibition of Aggregation, ADP [3, 9]: 20%; Percent Inhibition of Aggregation, Arachidonic acid [3, 10]: 40%; Percent Inhibition of Aggregation, Collagen [3, 11]: 25%; Percent Reduction TC (x ± S.E.) ([5]; listed as 1): 19.3%; Percent Reduction TC (x ± S.E.) ([5]; listed as 2): 21.4%
ethyl 11-methyl-3-methoxydibenz[b,f][1,4]oxazepine-8-carboxylate [Compound 5 (Table 1)]	–	–	–	–	–	–	Percent Reduction TG (x ± S.E.) [1]: 18.7%; Percent Reduction TBA (x ± S.E.) [2]: 35.2%; Percent Inhibition of Aggregation, ADP [3, 9]: 45%; Percent Inhibition of Aggregation, Arachidonic acid [3, 10]: 63%; Percent Inhibition of Aggregation, Collagen [3, 11]: 50%; Percent Reduction TC (x ± S.E.) [5]: 18.4%

Reference: patent publication US4435391A, “Dibenzoxazepine derivative, and pharmaceutical composition comprising the same” (Chugai Seiyaku Kabushiki Kaisha, priority 1980, dated 1984)
